How the values were obtained:
Set-up in all cases: species or system mice
Conditions in all cases: mouse, in vivo
[1] = tested on: peripheral mast cells
[2] = tested on: anti-PA IgG
[3] = tested on: CD4 T-cells

TNF-α
lymph node hypertrophy after direct injection into footpads [1]: marked lymph node hypertrophy
time of maximal lymph node growth [1]: 48 h

cholera toxin [CT]
adjuvant activity, serum anti-PA IgG by ELISA on day 175 [2]: significant adjuvant activity over PA alone
adjuvant activity, serum anti-PA IgG geometric mean titers [2]: significant adjuvant activity at all doses tested

pertussis toxin
T-cell recruitment to draining lymph nodes after T-cell pretreatment [3]: inhibited T-cell recruitment to draining lymph nodes

Source: patent US8076059B2 (priority 2003, dated 2011)
